# Data: patent US7560458B2, “Triazolopyrimidine derivatives as glycogen synthase kinase 3 inhibitors” (Janssen Pharmaceutica, N.V., priority 2003, dated 2009)
# Structures can show the parent of a compound that is named as a salt.
# Legend:
# [1] = target: GSK3alpha (Homo sapiens, UniProt P49840); assay: GSK3alpha assay (same as the GSK3beta assay, GSK3alpha 0.25 ng/μl); assay type: biochemical; details: −log IC50 (M); given as ranges (>8; 7-8; <7); read-out: pIC50 (GSK3alpha) (converted)
# Procedure, shortened: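 GSK3α at 0.25 ng/μl phosphorylated 5 μM biotinylated phospho-CREB peptide with 1 μM ATP and 33P-ATP for 1 h at room temperature, in 25 mM Tris pH 7.4 with 10 mM MgCl2 and 1 mM DTT. Phosphorylated peptide was captured on streptavidin SPA beads and counted. IC50 was taken from dose-response curves.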
# [2] = target: GSK3β (Homo sapiens, UniProt P49841); assay: GSK3beta assay (SPA, biotinylated phosphorylated CREB peptide, ATP-P33); assay type: biochemical; details: −log IC50 (M); given as ranges (>8; 7-8; <7); read-out: pIC50 (GSK3beta) (converted)
# GSK3β, sequence (P49841 whole entry, species assumed): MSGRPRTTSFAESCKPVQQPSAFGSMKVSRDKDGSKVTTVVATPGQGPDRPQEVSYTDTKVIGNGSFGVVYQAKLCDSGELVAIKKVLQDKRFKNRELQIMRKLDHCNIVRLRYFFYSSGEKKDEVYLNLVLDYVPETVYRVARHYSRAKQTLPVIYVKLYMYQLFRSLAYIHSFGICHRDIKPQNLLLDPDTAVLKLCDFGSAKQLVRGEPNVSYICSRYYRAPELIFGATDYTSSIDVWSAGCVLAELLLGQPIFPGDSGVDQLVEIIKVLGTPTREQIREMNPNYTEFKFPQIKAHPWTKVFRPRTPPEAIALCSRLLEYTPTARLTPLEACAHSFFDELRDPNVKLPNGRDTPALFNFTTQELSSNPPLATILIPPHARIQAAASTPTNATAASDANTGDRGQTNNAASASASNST
# Procedure, shortened: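 Radiometric SPA at room temperature, pH 7.4 Tris/MgCl2/DTT/BSA/glycerol, with 5.7 ng/μl GSK3β, 5 μM biotinylated phospho-CREB peptide, 1 μM ATP plus 33P-ATP for 1 h. Stopped with streptavidin SPA beads, counted after overnight settling; % inhibition versus no-compound control, IC50 from dose-response curve.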
# GSK3alpha, sequence (P49840 whole entry, species assumed): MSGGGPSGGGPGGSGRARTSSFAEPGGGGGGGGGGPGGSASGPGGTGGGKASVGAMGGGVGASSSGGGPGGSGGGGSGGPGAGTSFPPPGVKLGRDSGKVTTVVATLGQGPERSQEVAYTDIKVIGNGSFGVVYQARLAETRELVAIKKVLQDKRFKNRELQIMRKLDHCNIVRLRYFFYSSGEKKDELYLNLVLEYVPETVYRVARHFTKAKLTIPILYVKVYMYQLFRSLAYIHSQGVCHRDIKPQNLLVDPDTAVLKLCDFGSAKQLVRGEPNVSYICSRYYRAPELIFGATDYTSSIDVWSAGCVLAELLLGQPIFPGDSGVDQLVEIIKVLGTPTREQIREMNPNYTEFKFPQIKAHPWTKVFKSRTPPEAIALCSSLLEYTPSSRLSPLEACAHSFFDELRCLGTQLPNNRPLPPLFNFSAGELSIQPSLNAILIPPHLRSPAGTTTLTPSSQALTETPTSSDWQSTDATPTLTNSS
IC50 [1] [M],IC50 [2] [M],melting point [°C],SMILES
< 1e-08,< 1e-08,148,COCCOCc1cccc(-n2nnc3cnc(Nc4ccc(F)cc4)nc32)c1 [Compound 287]
< 1e-08,< 1e-08,168 to 172,C[S+]([O-])c1cccc(Nc2ncc3nnn(-c4cccc(F)c4)c3n2)c1 (centres unmarked) [Compound 152]
< 1e-08,< 1e-08,177,NS(=O)(=O)c1cccc(Nc2ncc3nnn(-c4cccc(F)c4)c3n2)c1 [Compound 1]
< 1e-08,< 1e-08,212 to 213,Fc1cccc(-n2nnc3cnc(Nc4cccc(Br)c4)nc32)c1 [Compound 7]
< 1e-08,< 1e-08,232,COc1cc(Nc2ncc3nnn(-c4cccc(F)c4)c3n2)ccc1C(=O)O [Compound 298]
< 1e-08,< 1e-08,214 to 218.1,CCOC(=O)/C=C/c1cccc(Nc2ncc3nnn(-c4cccc(F)c4)c3n2)c1 [Compound 9]
< 1e-08,< 1e-08,228 to 230,N#Cc1cccc(Nc2ncc3nnn(-c4cccc(F)c4)c3n2)c1 [Compound 8]
< 1e-08,< 1e-08,> 260,N#Cc1ccc(Nc2ncc3nnn(-c4cccc(F)c4)c3n2)cc1Cl [Compound 3]
< 1e-08,< 1e-08,–,OCCc1ccc(Nc2ncc3nnn(-c4cccc(CCO)c4)c3n2)cc1 [Compound 260]
< 1e-08,< 1e-08,–,O=S(=O)(NCCO)c1cccc(Nc2ncc3nnn(-c4cccc(F)c4)c3n2)c1 [Compound 88]
–,–,224,Nc1cccc(Nc2ncc3nnn(-c4cccc(F)c4)c3n2)c1 (as salt: HCl) [Compound 12]
< 1e-08,1e-08 to 1e-07,–,CNC(=O)c1ccc(Nc2ncc3nnn(-c4cccc(OCCOC)c4)c3n2)cc1 [Compound 325]
< 1e-08,< 1e-08,–,NC(=O)Cc1cccc(Nc2ncc3nnn(-c4cccc(F)c4)c3n2)c1 [Compound 153]
< 1e-08,< 1e-08,–,COc1ccc(Nc2ncc3nnn(-c4cccc(F)c4)c3n2)cn1 [Compound 91]
< 1e-08,< 1e-08,–,COCc1cccc(Nc2ncc3nnn(-c4cccc(F)c4)c3n2)c1 [Compound 56]
< 1e-08,< 1e-08,–,CNC(=O)c1ccc(Nc2ncc3nnn(-c4cccc(COC)c4)c3n2)cc1 [Compound 333]
< 1e-08,< 1e-08,–,COCCNC(=O)c1cccc(Nc2ncc3nnn(-c4cccc(F)c4)c3n2)c1 [Compound 90]
< 1e-08,< 1e-08,–,NS(=O)(=O)c1cccc(Nc2ncc3nnn(-c4cccc(CO)c4)c3n2)c1 [Compound 36]
< 1e-08,< 1e-08,–,COC(=O)c1cc(Nc2ncc3nnn(-c4cccc(F)c4)c3n2)ccc1N [Compound 134]

IC50 [1] [M],IC50 [2] [M],melting point [°C],SMILES
< 1e-08,< 1e-08,–,CNS(=O)(=O)c1cccc(Nc2ncc3nnn(-c4cccc(F)c4)c3n2)c1 [Compound 95]
< 1e-08,< 1e-08,–,COCc1cccc(-n2nnc3cnc(Nc4ccc(S(N)(=O)=O)cc4)nc32)c1 [Compound 146]
< 1e-08,< 1e-08,–,O=C(O)c1ccc(Nc2ncc3nnn(-c4cccc(CCO)c4)c3n2)cc1 [Compound 257]
< 1e-08,< 1e-08,–,CN(C)S(=O)(=O)c1cccc(Nc2ncc3nnn(-c4cccc(F)c4)c3n2)c1 [Compound 94]
< 1e-08,1e-08 to 1e-07,–,N#Cc1ccc(Nc2ncc3nnn(-c4cccc(CNC(=O)C5CC5)c4)c3n2)cc1 [Compound 203]
< 1e-08,< 1e-08,–,O=C(O)c1ccc(Nc2ncc3nnn(-c4ccccc4)c3n2)cc1 [Compound 123]
< 1e-08,< 1e-08,–,CC(=O)NCCNS(=O)(=O)c1cccc(Nc2ncc3nnn(-c4cccc(F)c4)c3n2)c1 [Compound 102]
1e-08 to 1e-07,1e-08 to 1e-07,–,N#CSc1ccc(Nc2ncc3nnn(-c4cccc(F)c4)c3n2)cc1 [Compound 18]
< 1e-08,< 1e-08,–,COC(=O)c1cc(Nc2ncc3nnn(-c4cccc(F)c4)c3n2)ccc1NC(C)=O [Compound 104]
< 1e-08,< 1e-08,–,COc1cccc(-n2nnc3cnc(Nc4cccc(C(C)O)c4)nc32)c1 (centres unmarked) [Compound 43]
< 1e-08,< 1e-08,–,O=C(O)c1ccc(Nc2ncc3nnn(-c4cccc(F)c4)c3n2)cc1 [Compound 30]
< 1e-08,< 1e-08,–,CS(=O)(=O)Nc1cccc(Nc2ncc3nnn(-c4cccc(F)c4)c3n2)c1 [Compound 45]
1e-08 to 1e-07,1e-08 to 1e-07,–,CC(C)CC(=O)NCc1cccc(-n2nnc3cnc(Nc4ccc(C(=O)O)cc4)nc32)c1 [Compound 193]
< 1e-08,< 1e-08,–,O=S(=O)(CCO)c1cccc(Nc2ncc3nnn(-c4cccc(F)c4)c3n2)c1 [Compound 77]
< 1e-08,< 1e-08,–,CC(=O)NCc1cccc(-n2nnc3cnc(Nc4ccc(S(N)(=O)=O)cc4)nc32)c1 [Compound 248]
< 1e-08,< 1e-08,–,NC(=O)c1ccc(Nc2ncc3nnn(-c4cccc(F)c4)c3n2)cc1 [Compound 307]
< 1e-08,< 1e-08,–,NCc1ccc(Nc2ncc3nnn(-c4cccc(CCO)c4)c3n2)cc1 [Compound 310]
< 1e-08,< 1e-08,–,COCC(=O)NCc1cccc(-n2nnc3cnc(Nc4ccc(S(N)(=O)=O)cc4)nc32)c1 [Compound 174]
< 1e-08,1e-08 to 1e-07,–,COc1cccc(-n2nnc3cnc(Nc4ccc(O)c(C(=O)O)c4)nc32)c1 [Compound 72]

# Second part, the compound before the results:
SMILES,IC50 [1] [M],IC50 [2] [M],melting point [°C]
COc1cccc(-n2nnc3cnc(Nc4cccc(C#N)c4)nc32)c1 [Compound 55],< 1e-08,< 1e-08,228 to 231
CC(=O)NCc1cccc(Nc2ncc3nnn(-c4cccc(C(=O)O)c4)c3n2)c1 [Compound 76],–,–,> 260
COc1cc(OC)cc(-n2nnc3cnc(Nc4cccc(C#N)c4)nc32)c1 [Compound 6],< 1e-08,< 1e-08,228 to 232
OCCc1cccc(Nc2ncc3nnn(-c4cccc(CCO)c4)c3n2)c1 [Compound 172],< 1e-08,< 1e-08,–
COc1cccc(-n2nnc3cnc(Nc4cccc(S(C)(=O)=O)c4)nc32)c1 [Compound 53],< 1e-08,< 1e-08,–
O=C(O)CNC(=O)c1ccc(Nc2ncc3nnn(-c4cccc(CNC(=O)C56CC7CC(CC(C7)C5)C6)c4)c3n2)cc1 [Compound 238],< 1e-08,< 1e-08,–
COCc1cccc(-n2nnc3cnc(Nc4cccc(CNC(C)=O)c4)nc32)c1 [Compound 80],< 1e-08,< 1e-08,–
CS(=O)(=O)Nc1cccc(Nc2ncc3nnn(-c4cccc(CCO)c4)c3n2)c1 [Compound 256],< 1e-08,< 1e-08,–
CC(C)CC(=O)NCc1cccc(-n2nnc3cnc(Nc4ccc(S(N)(=O)=O)cc4)nc32)c1 [Compound 197],< 1e-08,< 1e-08,–
COCc1cccc(-n2nnc3cnc(Nc4ccc(C(=O)O)c(OC)c4)nc32)c1 [Compound 304],< 1e-08,< 1e-08,–
COCc1cccc(-n2nnc3cnc(Nc4cccc(NS(C)(=O)=O)c4)nc32)c1 [Compound 84],< 1e-08,< 1e-08,–
CCOC(=O)NCc1cccc(-n2nnc3cnc(Nc4cccc([S+](C)[O-])c4)nc32)c1 (centres unmarked) [Compound 223],< 1e-08,< 1e-08,–
CS(=O)(=O)Nc1cccc(Nc2ncc3nnn(-c4cccc(CC(N)=O)c4)c3n2)c1 [Compound 273],< 1e-08,< 1e-08,–
COc1ccc(Nc2ncc3nnn(-c4cccc(CCO)c4)c3n2)cn1 [Compound 173],< 1e-08,< 1e-08,–
CC(O)c1cccc(Nc2ncc3nnn(-c4cccc(CC#N)c4)c3n2)c1 (centres unmarked) [Compound 278],< 1e-08,< 1e-08,–
COCc1cccc(-n2nnc3cnc(Nc4cccc(NC(C)=O)c4)nc32)c1 [Compound 81],< 1e-08,< 1e-08,–
O=C(O)CNC(=O)c1ccc(Nc2ncc3nnn(-c4cccc(CNC(=O)C5CC5)c4)c3n2)cc1 [Compound 205],< 1e-08,< 1e-08,–
COCc1cccc(Nc2ncc3nnn(-c4ccccc4)c3n2)c1 [Compound 61],< 1e-08,< 1e-08,–
NC(=O)CNC(=O)c1cccc(Nc2ncc3nnn(-c4cccc(CC(=O)O)c4)c3n2)c1 [Compound 176],1e-08 to 1e-07,1e-08 to 1e-07,–
COCc1cccc(-n2nnc3cnc(Nc4cccc(CCO)c4)nc32)c1 [Compound 151],< 1e-08,< 1e-08,–
CS(=O)(=O)Nc1cccc(Nc2ncc3nnn(-c4cccc(CNC(=O)C5CC5)c4)c3n2)c1 [Compound 202],< 1e-08,< 1e-08,–
CS(=O)(=O)Nc1cccc(Nc2ncc3nnn(-c4cccc(CNC(=O)C56CC7CC(CC(C7)C5)C6)c4)c3n2)c1 [Compound 235],< 1e-08,1e-08 to 1e-07,–
N#CCc1cccc(-n2nnc3cnc(Nc4cccc(C(=O)NCCO)c4)nc32)c1 [Compound 275],< 1e-08,< 1e-08,–
O=C(O)c1ccc(Nc2ncc3nnn(-c4cccc(CNC(=O)C56CC7CC(CC(C7)C5)C6)c4)c3n2)cc1 [Compound 239],1e-08,1e-08 to 1e-07,–
COCc1cccc(Nc2ncc3nnn(-c4cccc(COC)c4)c3n2)c1 [Compound 132],< 1e-08,< 1e-08,–
